The text below walks through data of patent US9527850B2, “Benzyl piperidine compounds as lysophosphatidic acid (LPA) receptor antagonist” (Merck Patent GmbH, priority 2011, dated 2016).

Each structure is given as a SMILES string.

The target in this assay is T1, LPA2 receptor (LPA2R) (Homo sapiens, UniProt Q9HBW0).
T1 construct: expressed in transfected cells; host or cells: U2OS
Briefly: LPA2R-Calciumflux assay (intracellular calcium mobilisation, FLIPR). The assay is classed as cell-based. Particulars: U2OS cells recombinant expressing LPA2R; inhibition of LPA-induced Ca-flux; 10 concentrations 30 uM to 1 nM, 1% DMSO. An excerpt:
The assay detects intra cellular calcium which is generated by cells upon activation of the LPA2 receptor by its ligand LPA. This transient calcium mobilization can be monitored using a commercial calcium detection kit (e.g. from Molecular Devices). The main component of such a kit is a dye, which becomes fluorescent when calcium is present—a transient fluorescence signal after laddition of a ligand to a test well are the result. Readers like the FLIPR (Molecular Devices) can be used to monitor such transient “Ca-flux” signals.
The signals are calculated according to peak maximum minus base line.
The assay is performed in microplates (384 wells per plate).
LPA2R-Calciumflux Assay Protocol
The assay is run according to the following procedure: • 50 uL seed cells (10000 cells/well in DMEM buffer) • Incubate 24 h at 37° C., 10% CO2 • aspirate medium • 50 uL add calcium dye 1×HBSS/HEPES buffer • incubate 1 h at 37° C. (“loading”) • equilibrate 10 min at RT • 5 uL add compounds in HEPES buffer • shake 10 sec. at 1000 rpm • incubate 15 min at RT • 20 uL add LPA (in the FLIPR Tetra) in Krebs-buffer/BSA & measurement
The cells are seeded in DMEM buffer (DMEM, 10% FCS, 10 mM HEPES, 1% Pen/Strep).
Dye loading is done in HBSS/HEPES buffer (100 mL 10×HBSS+20 mL 1M HEPES+880 mL water, pH 7.4)
The LPA is added in Krebs/BSA buffer (120 mM NaCl, 5 mM KCl, 0.62 mM MgSO4, 1.8 mM CaCl2, 10 mM HEPES, 6 mM D(+)-Glucose, 0.2% BSA, pH 7.4).
The compounds are pre-diluted in HEPES buffer (20 mM, pH 7.4), whereby the final DMSO content in the assay is kept at 1%. The compounds are pre-diluted in order to generate dose response series on the microplates. The dose response series consist of 10 concentrations for each compound from 30 uM final to 1 nM final. From all compound wells the resulting signals are referred to control wells (located on each plate besides the compound wells) in terms of % activity.
From these % activity values—along with the corresponding compound concentrations—IC50 values are fitted for each compound using standard fitting programs such as Graphpad Prism. Here the method “log(inhibitor) vs. response—Variable slope” is used.
Background: Calcium assays in cells follow changes in intracellular calcium, usually with a dye or a luminescent sensor.

T1 sequence (Q9HBW0 whole entry): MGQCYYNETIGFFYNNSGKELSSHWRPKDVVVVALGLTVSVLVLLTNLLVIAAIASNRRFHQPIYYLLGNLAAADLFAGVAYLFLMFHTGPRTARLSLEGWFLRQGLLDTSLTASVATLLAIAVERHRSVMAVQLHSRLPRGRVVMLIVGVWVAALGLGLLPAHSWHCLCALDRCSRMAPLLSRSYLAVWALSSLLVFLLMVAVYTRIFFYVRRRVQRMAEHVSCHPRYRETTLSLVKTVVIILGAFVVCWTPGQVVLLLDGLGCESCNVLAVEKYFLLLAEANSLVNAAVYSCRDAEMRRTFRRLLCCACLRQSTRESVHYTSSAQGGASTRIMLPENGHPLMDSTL

The term IC50 denotes the midpoint of a concentration-inhibition curve. In the case of `Cc1ccc(CN2CCCC[C@H]2c2cc3ccccc3[nH]2)cc1` [Example Compound 143, 2-[(S)-1-(4-Methyl-benzyl)-piperidin-2-yl]-1H-indole], the IC50 was > 15 µM. Under `COc1ccc(CN2CCCCC2c2cc3ccccc3[nH]2)cc1` (stereo not drawn) [compound 1, 2-[1-(4-Methoxy-benzyl)-piperidin-2-yl]-1H-indole] stands 0.5 to 5 µM; under `Cc1cccc(CN2CCCCC2c2cc3ccccc3[nH]2)c1` (stereo not drawn) [compound 2, 2-[1-(3-Methyl-benzyl)-piperidin-2-yl]-1H-indole], < 0.5 µM; under `Fc1ccc(CN2CCCCC2c2cc3ccccc3[nH]2)cc1` (stereo not drawn) [compound 3, 2-[1-(4-Fluoro-benzyl)-piperidin-2-yl]-1H-indole], < 0.5 µM. On to `COc1cccc(CN2CCCCC2c2cc3ccccc3[nH]2)c1` (stereo not drawn) [compound 4, 2-[1-(3-Methoxy-benzyl)-piperidin-2-yl]-1H-indole], for which the IC50 was < 0.5 µM.

`Cc1ccc(CN2CCCCC2c2cc3ccccc3[nH]2)cc1C` (stereo not drawn) [compound 5, 2-[1-(3,4-Dimethyl-benzyl)-piperidin-2-yl]-1H-indole]: the half-inhibitory concentration (IC50) was < 0.5 µM. On to `c1ccc(CN2CCCCC2c2cc3ccccc3[nH]2)cc1` (stereo not drawn) [compound 6, 2-(1-Benzyl-piperidin-2-yl)-1H-indole], for which the IC50 was in the range of 0.5 to 5 µM.

Consider `Cn1cc(CN2CCCCC2c2cc3ccccc3[nH]2)c2ccccc21` (stereo not drawn) [compound 8, 3-[2-(1H-Indol-2-yl)-piperidin-1-ylmethyl]-1-methyl-1H-indole], for which the IC50 lay within 0.5 to 5 µM. Under `CC(C)n1cc(CN2CCCCC2c2cc3ccccc3[nH]2)c2ccccc21` (stereo not drawn) [compound 9, 3-[2-(1H-Indol-2-yl)-piperidin-1-ylmethyl]-1-isopropyl-1H-indole] stands 0.5 to 5 µM. Under `Cn1cccc1CN1CCCCC1c1cc2ccccc2[nH]1` (stereo not drawn) [compound 10] stands 5 to 15 µM; under `Cc1ccc(CN2CCCCC2c2cc3ccccc3[nH]2)cc1` (stereo not drawn) [compound 13, 2-[1-(4-Methyl-benzyl)-piperidin-2-yl]-1H-indole], < 0.5 µM. Under `Cc1cccc(CN2CCCCC2c2cc3cc(F)ccc3[nH]2)c1` (stereo not drawn) [compound 14, 5-Fluoro-2-[1-(3-methyl-benzyl)-piperidin 2-yl]-1H-indole] stands 0.5 to 5 µM.

With `Cc1ccc(CN2CCCCC2c2cc3cc(F)ccc3[nH]2)cc1C` (stereo not drawn) [compound 15, 2-[1-(3,4-Dimethyl-benzyl)-piperidin-2-yl]-5-fluoro-1H-indole], the IC50 fell in the range of 0.5 to 5 µM.

For `FC(F)(F)c1ccccc1CN1CCCCC1c1cc2ccccc2[nH]1` (stereo not drawn) [compound 16], the IC50 fell in the range of 5 to 15 µM. Under `FC(F)(F)c1cccc(CN2CCCCC2c2cc3ccccc3[nH]2)c1` (stereo not drawn) [compound 17] stands 5 to 15 µM; under `FC(F)(F)c1ccc(CN2CCCCC2c2cc3ccccc3[nH]2)cc1` (stereo not drawn) [compound 18], 0.5 to 5 µM. Under `N#Cc1ccc(CN2CCCCC2c2cc3ccccc3[nH]2)cc1` (stereo not drawn) [compound 19, 4-[2-(1H-Indol-2-yl)-piperidin-1-ylmethyl]-benzonitrile] stands 5 to 15 µM. In the case of `Cc1cccc(CN2CCCCC2c2cc3cccc(C)c3[nH]2)c1` (stereo not drawn) [compound 20, 7-Methyl-2-[1-(3-methyl-benzyl)-piperidin-2-yl]-1H-indole], the IC50 fell in the range of 0.5 to 5 µM. `Cc1cccc(CN2CCCCC2c2cc3cc(F)cc(F)c3[nH]2)c1` (stereo not drawn) [compound 21, 5,7-Difluoro-2-[1-(3-methyl-benzyl)-piperidin-2-yl]-1H-indole]: the IC50 lay within 5 to 15 µM.

`Cc1ccc(CN2CCCCC2c2cc3cc(F)cc(F)c3[nH]2)cc1` (stereo not drawn) [compound 22, 5,7-Difluoro-2-[1-(4-methyl-benzyl)-piperidin-2-yl]-1H-indole]: the IC50 was 5 to 15 µM. Under `Cc1ccc(CN2CCCCC2c2cc3cc(F)cc(F)c3[nH]2)cc1C` (stereo not drawn) [compound 23, 2-[1-(3,4-Dimethyl-benzyl)-piperidin-2-yl]-5,7-difluoro-1H-indole] stands 0.5 to 5 µM; under `Cc1ccc(CN2CCCCC2c2cc3c(F)ccc(F)c3[nH]2)cc1C` (stereo not drawn) [compound 24, 2-[1-(3,4-Dimethyl-benzyl)-piperidin-2-yl]-4,7-difluoro-1H-indole], 0.5 to 5 µM.

In the case of `CCOC(=O)c1ccc(CN2CCCCC2c2cc3ccccc3[nH]2)cc1` (stereo not drawn) [compound 25, 4-[2-(1H-Indol-2-yl)-piperidin-1-ylmethyl]-benzoic acid ethyl ester], the IC50 was in the range of 0.5 to 5 µM.

For `CC1CCCC(c2cc3ccccc3[nH]2)N1Cc1ccccc1O` (stereo not drawn) [compound 26, 2-[2-(1H-Indol-2-yl)-6-methyl-piperidin-1-ylmethyl]-phenol], the IC50 fell in the range of 0.5 to 5 µM. On to `Cc1ccc(CN2C(C)CCCC2c2cc3ccccc3[nH]2)cc1C` (stereo not drawn) [compound 27, 2-[1-(3,4-Dimethyl-benzyl)-6-methyl-piperidin-2-yl]-1H-indole], for which the IC50 is < 0.5 µM. On to `COc1ccccc1CN1C(C)CCCC1c1cc2cc(F)ccc2[nH]1` (stereo not drawn) [compound 28, 5-Fluoro-2-[1-(2-methoxy-benzyl)-6-methyl-piperidin-2-yl]-1H-indole], for which the IC50 fell in the range of 0.5 to 5 µM. Under `CC1CCCC(c2cc3cc(F)ccc3[nH]2)N1Cc1ccccc1O` (stereo not drawn) [compound 29, 2-[2-(5-Fluoro-1H-indol-2-yl)-6-methyl-piperidin-1-ylmethyl]-phenol] stands 0.5 to 5 µM. With `Cc1cccc(CN2C(C)CCCC2c2cc3cc(F)ccc3[nH]2)c1` (stereo not drawn) [compound 30, 5-Fluoro-2-[6-methyl-1-(3-methyl-benzyl)-piperidin-2-yl]-1H-indole], the IC50 is < 0.5 µM.

For the compound `CC1CCCC(c2cc3cc(F)ccc3[nH]2)N1Cc1cccc([N+](=O)[O-])c1` (stereo not drawn) [compound 31, 5-Fluoro-2-[6-methyl-1-(3-nitro-benzyl)-piperidin-2-yl]-1H-indole], the IC50 lay within 0.5 to 5 µM. Under `CC1CCCC(c2cc3cc(F)ccc3[nH]2)N1Cc1ccc(C#N)cc1` (stereo not drawn) [compound 32, 4-[2-(5-Fluoro-1H-indol-2-yl)-6-methyl-piperidin-1-ylmethyl]-benzonitrile] stands 0.5 to 5 µM; under `CC1CCCC(c2cc3cc(F)ccc3[nH]2)N1Cc1ccc(S(C)(=O)=O)cc1` (stereo not drawn) [compound 33], 0.5 to 5 µM.

Turning to `CCOc1ccc(CN2C(C)CCCC2c2cc3cc(F)ccc3[nH]2)cc1` (stereo not drawn) [compound 34, 2-[1-(4-Ethoxy-benzyl)-6-methyl-piperidin-2-yl]-5-fluoro-1H-indole], the IC50 lay in the range of 0.5 to 5 µM. Under `CCOC(=O)c1ccc(CN2C(C)CCCC2c2cc3cc(F)ccc3[nH]2)cc1` (stereo not drawn) [compound 35, 4-[2-(5-Fluoro-1H-indol-2-yl)-6-methyl-piperidin-1-ylmethyl]-benzoic acid ethyl ester] stands 0.5 to 5 µM.

Take `CC1CCCC(c2cc3cc(F)ccc3[nH]2)N1Cc1ccc(F)cc1` (stereo not drawn) [compound 36, 5-Fluoro-2-[1-(4-fluoro-benzyl)-6-methyl-piperidin-2-yl]-1H-indole]: the IC50 is < 0.5 µM. Under `CC1CCCC(c2cc3cc(F)ccc3[nH]2)N1Cc1ccc(F)cc1F` (stereo not drawn) [compound 37, 2-[1-(2,4-Difluoro-benzyl)-6-methyl-piperidin-2-yl]-5-fluoro-1H-indole] stands 0.5 to 5 µM; under `Cc1ccc(CN2C(C)CCCC2c2cc3cc(F)ccc3[nH]2)o1` (stereo not drawn) [compound 38, 5-Fluoro-2-[6-methyl-1-(5-methyl-furan-2-ylmethyl)-piperidin-2-yl]-1H-indole], < 0.5 µM. Under `CC1CCCC(c2cc3cc(F)ccc3[nH]2)N1Cc1ccc(Cl)cc1` (stereo not drawn) [compound 39, 2-[1-(4-Chloro-benzyl)-6-methyl-piperidin-2-yl]-5-fluoro-1H-indole] stands 0.5 to 5 µM; under `COc1cccc(CN2C(C)CCCC2c2cc3cc(F)ccc3[nH]2)c1` (stereo not drawn) [compound 40, 5-Fluoro-2-[1-(3-methoxy-benzyl)-6-methyl-piperidin-2-yl]-1H-indole], < 0.5 µM; under `CC1CCCC(c2cc3cc(F)ccc3[nH]2)N1Cc1cccnc1` (stereo not drawn) [compound 41, 5-Fluoro-2-(6-methyl-1-pyridin-3-ylmethyl-piperidin-2-yl)-1H-indole], 0.5 to 5 µM. Under `N#Cc1ccc(CN2CCCCC2c2cc3c(F)ccc(F)c3[nH]2)cc1` (stereo not drawn) [compound 42, 4-[2-(4,7-Difluoro-1H-indol-2-yl)-piperidin-1-ylmethyl]-benzonitrile] stands 5 to 15 µM; under `Fc1ccc(F)c2[nH]c(C3CCCCN3)cc12` (stereo not drawn) [compound 44, 4,7-Difluoro-2-piperidin-2-yl-1H-indole], 0.5 to 5 µM. Take `CC1CCCC(c2cc3cc(F)ccc3[nH]2)N1` (stereo not drawn) [compound 45, 5-Fluoro-2-(6-methyl-piperidin-2-yl)-1H-indole]: the IC50 was 0.5 to 5 µM.
